In patent publication US11542313B2, “Incretin analogs and uses thereof” (Eli Lilly and Company, priority 2017, dated 2023) one finds EC50 and Ki data, which are given here for five molecules.

For one assay, the target named is T1, hGIPR (Homo sapiens, UniProt P48546).
T1 construct: expressed in transfected cells; host or cells: HEK293
T1 sequence (P48546 22-466): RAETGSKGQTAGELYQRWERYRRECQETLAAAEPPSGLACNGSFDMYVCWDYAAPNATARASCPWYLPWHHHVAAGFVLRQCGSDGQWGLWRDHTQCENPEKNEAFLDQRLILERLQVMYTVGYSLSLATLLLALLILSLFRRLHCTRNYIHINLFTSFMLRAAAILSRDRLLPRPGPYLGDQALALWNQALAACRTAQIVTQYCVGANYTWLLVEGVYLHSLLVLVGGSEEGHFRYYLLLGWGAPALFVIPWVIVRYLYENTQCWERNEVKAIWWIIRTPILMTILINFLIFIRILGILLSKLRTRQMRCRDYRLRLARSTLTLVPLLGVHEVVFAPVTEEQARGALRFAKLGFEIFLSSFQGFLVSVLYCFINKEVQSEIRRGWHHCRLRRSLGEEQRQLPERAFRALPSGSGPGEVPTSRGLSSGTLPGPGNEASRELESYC
Briefly: cAMP assay in HEK293 cells expressing hGIPR, 0.1% casein. Format: cell-based. To be noted: in the presence of 0.1% casein; read-out: cAMP EC50, GIPR. On the technique in general: Cyclic AMP is a second messenger, typically raised through Gs and lowered through Gi signalling.

The target of another assay is T2, hGcgR (Homo sapiens, UniProt P47871).
T2 construct: expressed in transfected cells; host or cells: HEK293
T2 sequence (P47871 26-477): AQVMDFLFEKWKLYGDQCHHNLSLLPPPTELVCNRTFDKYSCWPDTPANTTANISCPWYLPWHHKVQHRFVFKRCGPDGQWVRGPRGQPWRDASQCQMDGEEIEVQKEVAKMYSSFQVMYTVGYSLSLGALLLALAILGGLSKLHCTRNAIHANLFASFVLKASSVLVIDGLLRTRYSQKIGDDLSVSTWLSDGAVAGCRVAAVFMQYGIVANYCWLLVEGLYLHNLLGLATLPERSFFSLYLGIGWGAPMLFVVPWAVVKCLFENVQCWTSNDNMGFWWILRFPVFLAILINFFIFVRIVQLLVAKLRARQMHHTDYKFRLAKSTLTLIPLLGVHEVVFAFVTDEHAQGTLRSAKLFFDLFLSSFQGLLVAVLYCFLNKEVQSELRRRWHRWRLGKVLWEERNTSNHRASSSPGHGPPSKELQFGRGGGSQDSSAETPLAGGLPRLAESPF
Briefly: cAMP assay in HEK293 cells expressing hGcgR, 0.1% casein. Format: cell-based. To be noted: in the presence of 0.1% casein; read-out: cAMP EC50, GcGR.

Another assay concerns the target hGLP-1R (Homo sapiens, UniProt P43220). Briefly: cAMP assay in HEK293 cells expressing hGLP-1R, 0.1% casein. The assay is classed as cell-based. To be noted: in the presence of 0.1% casein; read-out: cAMP EC50, GLP-1R.
In a further assay the target is T3, GLP-1 receptor (GLP-1R) (Homo sapiens, UniProt P43220).
T3 construct: expressed in transfected cells; host or cells: HEK293 (membranes)
T3 sequence (P43220 24-463): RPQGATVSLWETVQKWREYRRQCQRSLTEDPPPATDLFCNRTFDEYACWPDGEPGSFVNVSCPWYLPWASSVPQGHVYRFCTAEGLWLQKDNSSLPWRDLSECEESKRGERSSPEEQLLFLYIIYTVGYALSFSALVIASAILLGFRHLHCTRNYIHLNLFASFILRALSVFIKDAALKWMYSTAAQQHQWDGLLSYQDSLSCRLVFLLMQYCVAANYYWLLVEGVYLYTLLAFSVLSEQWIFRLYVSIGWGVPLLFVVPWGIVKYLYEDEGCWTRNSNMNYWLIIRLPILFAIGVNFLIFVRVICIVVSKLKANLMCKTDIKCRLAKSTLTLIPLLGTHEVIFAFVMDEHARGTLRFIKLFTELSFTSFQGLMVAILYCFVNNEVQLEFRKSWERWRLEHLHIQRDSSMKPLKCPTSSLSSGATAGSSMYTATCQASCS
Briefly: Radioligand competition binding (SPA), human GLP-1R membranes. To be noted: HEK293 membranes, SPA, bacitracin present; mean; read-out: Ki, GLP-1R. From the text:
(§1) Radioligand competition binding assays are run to determine the equilibrium dissociation constant for exemplary compounds and comparator molecules.
(§2) Competition curves are plotted as the percent specific inhibition (y-axis) versus log concentration of compound (x-axis) and analyzed using a four parameter nonlinear regression fit with variable slope (ABase or Genedata).
In general terms: In a radioligand displacement assay an active substance lowers the binding of a labelled ligand.

For assay [1], the target named is T4, human glucagon receptor (GcgR) (Homo sapiens, UniProt P47871).
T4 construct: expressed in transfected cells; host or cells: HEK293 (membranes)
T4 sequence (P47871 26-477): as the sequence (P47871 26-477) above
Briefly: Radioligand competition binding (SPA), human GcgR membranes. To be noted: HEK293 membranes, SPA, bacitracin present; mean; read-out: Ki, GcgR.
From the text: as §1, §2

The target in assay [2] is T5, human GIP receptor (GIPR) (Homo sapiens, UniProt P48546).
T5 construct: expressed in transfected cells; host or cells: HEK293 (membranes)
T5 sequence (P48546 22-466): T1 sequence (P48546 22-466)
Briefly: Radioligand competition binding (SPA), human GIPR membranes. To be noted: HEK293 membranes, SPA, bacitracin present; mean; read-out: Ki, GIPR.
From the text: as §1, §2

Structures are written as SMILES. *1 amine or outer side, *2 acyl side, *3 side chain or, on linkers, in order; H or OH if unused. Where a SMILES comes first, the peptide text is derived from it. Side-chain parts run from the residue outwards. [ ]: non-standard residue; d: D form. The star is where a group is joined. C20 diacid = O=C(O)CCCCCCCCCCCCCCCCCCC(=O)*; γGlu = O=C(O)[C@H](CCC(=O)[*:2])N[*:1]; αMeL = CC(C)C[C@](C)(N)C(=O)O; AEEA = NCCOCCOCC(=O)O; Aib = CC(C)(N)C(=O)O

hGLP-1R, sequence (P43220 24-463): as the sequence (P43220 24-463) above

One may read the EC50 as the concentration that produces a half-maximal response. What is called Ki is the dissociation constant of the complex between target and ligand, obtained from inhibition or displacement. As for `CC[C@H](C)[C@H](NC(=O)[C@H](Cc1ccccc1)NC(=O)[C@H](C)NC(=O)[C@H](Cc1c[nH]cn1)NC(=O)[C@H](CCC(N)=O)NC(=O)[C@H](C)NC(=O)[C@H](CCCCNC(=O)COCCOCCNC(=O)CC[C@H](NC(=O)CCCCCCCCCCCCCCCCCCC(=O)O)C(=O)O)NC(=O)[C@H](CCCCN)NC(=O)[C@H](CC(=O)O)NC(=O)[C@H](CC(C)C)NC(=O)[C@](C)(CC(C)C)NC(=O)[C@@H](NC(=O)[C@H](CO)NC(=O)[C@H](Cc1ccc(O)cc1)NC(=O)[C@H](CC(=O)O)NC(=O)[C@H](CO)NC(=O)[C@@H](NC(=O)[C@H](Cc1ccccc1)NC(=O)[C@@H](NC(=O)CNC(=O)[C@H](CCC(N)=O)NC(=O)C(C)(C)NC(=O)[C@@H](N)Cc1ccc(O)cc1)[C@@H](C)O)[C@@H](C)O)[C@@H](C)CC)C(=O)N[C@@H](CCC(=O)O)C(=O)N[C@@H](Cc1ccc(O)cc1)C(=O)N[C@@H](CC(C)C)C(=O)N[C@@H](CC(C)C)C(=O)N[C@@H](C)C(=O)NC(C)(C)C(=O)NCC(=O)N1CCC[C@H]1C(=O)N[C@@H](CO)C(=O)N[C@@H](CO)C(=O)NCC(=O)N[C@@H](C)C(=O)N1CCC[C@H]1C(=O)N1CCC[C@H]1C(=O)N1CCC[C@H]1C(=O)N[C@@H](CO)C(N)=O` [Example 2] (H-Y[Aib]QGTFTSDYSI[αMeL]LDKK([AEEA-γGlu-C20 diacid])AQHAFIEYLLA[Aib]GPSSGAPPPS-NH2), the results for the EC50 on hGIPR, at hGcgR and on hGLP-1R were 0.0474 nM, 0.0553 nM and 0.207 nM, respectively. The Ki was 4.5 nM at GLP-1 receptor (GLP-1R), 3.71 nM in assay [1] and 0.0665 nM in assay [2].

`CC[C@H](C)[C@H](NC(=O)[C@H](Cc1ccccc1)NC(=O)[C@H](C)NC(=O)[C@H](CCC(N)=O)NC(=O)[C@H](C)NC(=O)[C@H](C)NC(=O)[C@H](CCCCNC(=O)COCCOCCNC(=O)COCCOCCNC(=O)CC[C@H](NC(=O)CCCCCCCCCCCCCCCCCCC(=O)O)C(=O)O)NC(=O)[C@H](CCCCN)NC(=O)[C@H](CC(=O)O)NC(=O)[C@H](CC(C)C)NC(=O)[C@](C)(CC(C)C)NC(=O)[C@@H](NC(=O)[C@H](CO)NC(=O)[C@H](Cc1ccc(O)cc1)NC(=O)[C@H](CC(=O)O)NC(=O)[C@H](CO)NC(=O)[C@@H](NC(=O)[C@H](Cc1ccccc1)NC(=O)[C@@H](NC(=O)CNC(=O)[C@H](CCC(N)=O)NC(=O)C(C)(C)NC(=O)[C@@H](N)Cc1ccc(O)cc1)[C@@H](C)O)[C@@H](C)O)[C@@H](C)CC)C(=O)N[C@@H](CCC(=O)O)C(=O)N[C@@H](Cc1ccc(O)cc1)C(=O)N[C@@H](CC(C)C)C(=O)N[C@@H](CC(C)C)C(=O)N[C@@H](CCC(=O)O)C(=O)NC(C)(C)C(=O)NCC(=O)N1CCC[C@H]1C(=O)N[C@@H](CO)C(=O)N[C@@H](CO)C(=O)NCC(=O)N[C@@H](C)C(=O)N1CCC[C@H]1C(=O)N1CCC[C@H]1C(=O)N1CCC[C@H]1C(=O)N[C@@H](CO)C(N)=O` [Example 5] (H-Y[Aib]QGTFTSDYSI[αMeL]LDKK([AEEA-AEEA-γGlu-C20 diacid])AAQAFIEYLLE[Aib]GPSSGAPPPS-NH2): the EC50 came out at 0.0757 nM at hGIPR, 0.0226 nM at hGcgR and 0.147 nM at hGLP-1R. Moreover, the Ki on GLP-1 receptor (GLP-1R) was 36.7 nM; in assay [1], 0.422 nM; in assay [2], 0.179 nM.

With `CC[C@H](C)[C@H](NC(=O)[C@H](Cc1ccccc1)NC(=O)[C@H](C)NC(=O)C(C)(C)NC(=O)[C@H](CCC(N)=O)NC(=O)[C@H](C)NC(=O)[C@H](CCCCNC(=O)COCCOCCNC(=O)CC[C@H](NC(=O)CC[C@H](NC(=O)CCCCCCCCCCCCCCCCCCC(=O)O)C(=O)O)C(=O)O)NC(=O)[C@H](CCCCN)NC(=O)[C@H](CC(=O)O)NC(=O)[C@H](CC(C)C)NC(=O)[C@H](CC(C)C)NC(=O)[C@@H](NC(=O)[C@H](CO)NC(=O)[C@H](Cc1ccc(O)cc1)NC(=O)[C@H](CC(=O)O)NC(=O)[C@H](CO)NC(=O)[C@@H](NC(=O)[C@H](Cc1ccccc1)NC(=O)[C@@H](NC(=O)CNC(=O)[C@H](CCC(N)=O)NC(=O)C(C)(C)NC(=O)[C@@H](N)Cc1ccc(O)cc1)[C@@H](C)O)[C@@H](C)O)[C@@H](C)CC)C(=O)N[C@@H](CCC(=O)O)C(=O)N[C@@H](Cc1ccc(O)cc1)C(=O)N[C@@H](CC(C)C)C(=O)N[C@@H](CC(C)C)C(=O)N[C@@H](CCC(=O)O)C(=O)NC(C)(C)C(=O)NCC(=O)N1CCC[C@H]1C(=O)N[C@@H](CO)C(=O)N[C@@H](CO)C(=O)NCC(=O)N[C@@H](C)C(=O)N1CCC[C@H]1C(=O)N1CCC[C@H]1C(=O)N1CCC[C@H]1C(=O)N[C@@H](CO)C(N)=O` [Example 19] (H-Y[Aib]QGTFTSDYSILLDKK([AEEA-γGlu-γGlu-C20 diacid])AQ[Aib]AFIEYLLE[Aib]GPSSGAPPPS-NH2; N-terminus assumed), the EC50 on hGIPR came to 0.0455 nM; at hGcgR, 0.0874 nM; at hGLP-1R, 0.143 nM. Also, the Ki at GLP-1 receptor (GLP-1R) was found to be 12 nM; in assay [1], 5.2 nM; in assay [2], 0.0789 nM.

Regarding `CC[C@H](C)[C@H](NC(=O)[C@H](Cc1ccccc1)NC(=O)[C@H](C)NC(=O)C(C)(C)NC(=O)[C@H](CCC(N)=O)NC(=O)[C@H](C)NC(=O)[C@H](CCCCNC(=O)COCCOCCNC(=O)COCCOCCNC(=O)CC[C@H](NC(=O)CCCCCCCCCCCCCCCCCCC(=O)O)C(=O)O)NC(=O)[C@H](CCCCN)NC(=O)[C@H](CC(=O)O)NC(=O)[C@H](CC(C)C)NC(=O)[C@H](CC(C)C)NC(=O)[C@@H](NC(=O)[C@H](CO)NC(=O)[C@H](Cc1ccc(O)cc1)NC(=O)[C@H](CC(=O)O)NC(=O)[C@H](CO)NC(=O)[C@@H](NC(=O)[C@H](Cc1ccccc1)NC(=O)[C@@H](NC(=O)CNC(=O)[C@H](CCC(N)=O)NC(=O)C(C)(C)NC(=O)[C@@H](N)Cc1ccc(O)cc1)[C@@H](C)O)[C@@H](C)O)[C@@H](C)CC)C(=O)N[C@@H](CCC(=O)O)C(=O)N[C@@H](Cc1ccc(O)cc1)C(=O)N[C@@H](CC(C)C)C(=O)N[C@@H](CC(C)C)C(=O)N[C@@H](C)C(=O)NC(C)(C)C(=O)NCC(=O)N1CCC[C@H]1C(=O)N[C@@H](CO)C(=O)N[C@@H](CO)C(=O)NCC(=O)N[C@@H](C)C(=O)N1CCC[C@H]1C(=O)N1CCC[C@H]1C(=O)N1CCC[C@H]1C(=O)N[C@@H](CO)C(N)=O` [Example 15] (H-Y[Aib]QGTFTSDYSILLDKK([AEEA-AEEA-γGlu-C20 diacid])AQ[Aib]AFIEYLLA[Aib]GPSSGAPPPS-NH2; N-terminus assumed), the EC50 was determined as 0.0689 nM at hGIPR, 0.131 nM at hGcgR and 0.253 nM at hGLP-1R. Besides, the Ki on GLP-1 receptor (GLP-1R) stood at 5.8 nM; in assay [1], 4.56 nM; in assay [2], 0.0972 nM.

For the molecule `CC[C@H](C)[C@H](NC(=O)[C@H](Cc1ccccc1)NC(=O)[C@H](C)NC(=O)C(C)(C)NC(=O)[C@H](CCC(N)=O)NC(=O)[C@H](C)NC(=O)[C@H](CCCCNC(=O)COCCOCCNC(=O)CC[C@H](NC(=O)CCCCCCCCCCCCCCCCCCC(=O)O)C(=O)O)NC(=O)[C@H](CCCCN)NC(=O)[C@H](CC(=O)O)NC(=O)[C@H](CC(C)C)NC(=O)[C@](C)(CC(C)C)NC(=O)[C@@H](NC(=O)[C@H](CO)NC(=O)[C@H](Cc1ccc(O)cc1)NC(=O)[C@H](CC(=O)O)NC(=O)[C@H](CO)NC(=O)[C@@H](NC(=O)[C@H](Cc1ccccc1)NC(=O)[C@@H](NC(=O)CNC(=O)[C@H](CCC(N)=O)NC(=O)C(C)(C)NC(=O)[C@@H](N)Cc1ccc(O)cc1)[C@@H](C)O)[C@@H](C)O)[C@@H](C)CC)C(=O)N[C@@H](CCC(=O)O)C(=O)N[C@@H](Cc1ccc(O)cc1)C(=O)N[C@@H](CC(C)C)C(=O)N[C@@H](CC(C)C)C(=O)N[C@@H](CCC(=O)O)C(=O)NC(C)(C)C(=O)NCC(=O)N1CCC[C@H]1C(=O)N[C@@H](CO)C(=O)N[C@@H](CO)C(=O)NC(C)(C)C(=O)N[C@@H](C)C(=O)N1CCC[C@H]1C(=O)N1CCC[C@H]1C(=O)N1CCC[C@H]1C(=O)N[C@@H](CO)C(N)=O` [Example 14] (H-Y[Aib]QGTFTSDYSI[αMeL]LDKK([AEEA-γGlu-C20 diacid])AQ[Aib]AFIEYLLE[Aib]GPSS[Aib]APPPS-NH2; N-terminus assumed), the results for the EC50 on hGIPR, at hGcgR and on hGLP-1R were 0.0356 nM, 0.0876 nM and 0.146 nM, respectively. For the same molecule, the Ki at GLP-1 receptor (GLP-1R) was 6.27 nM; in assay [1], 2.64 nM; in assay [2], 0.035 nM.
